Biological target: I1 imidazoline receptor
Assay: I1 imidazoline receptor binding assay, 3H-clonidine, bovine VLM membranes
Conditions: 25° C., 50 min
Experimental: Fresh bovine brain stems were obtained from a local slaughter house. After removal of pia-arachnoid, the medulla was isolated by dissecting the brain stem about 1 cm posterior and 1 cm caudal to the obex. The ventral quadrants of the medulla excluding the pyramids were used as the VLM. For each preparation, 30 to 40 VLM were used. Initial homogenization was performed in 20 volumes of 5 mM HEPES buffer (pH 7.4 at 4° C.) containing 250 mM sucrose, 50 uM Calpain I inhibitor (Boehginer Mannheim, Indianapolis, Ind.), 100 uM 1,10-phenanthroline (Sigma, St. Louis, Mo.) and 50 uM Pefabloc (Boehginer Mannheim, Indianapolis, Ind.), using Virtis homogenizer at setting 7 with three 10 second pulses, followed by three passes in a teflon-glass tissue homogenizer. The inhibitors were added to prevent degradation by proteases and peptidases. The homogenates were then centrifuged at 1000× g for 10 min and the resulting pellets were re-homogenized and centrifuged. Supernatants resulted from both runs were combined and centrifuged for 20 min at 48000× g. The pellets obtained were resuspended in a teflon-glass homogenizer in 50 mM Tris-HCl with 5 mM EDTA (pH 7.7 at 4° C.), centrifuged, and resuspended in 50 mM Tris-HCl with 25 mM NaCl, pH 7.7 at room temp. To remove endogenous ligands, the homogenate was incubated 30 min at room temp before it was centrifuged for 20 min at 48000× g. The pellets were then washed with 50 mM Tris-HCl buffer, (pH 7.4 at 4° C.) and loaded on top of 5 mM HEPES/0.85 M sucrose (pH 7.4 at 4° C.). Pellets obtained after centrifugation at 48000× g for 20 min were saved. The fatty connective tissue on the top layer was discarded. The partially purified VLM membrane pellets were then washed twice with 50 mM Tris-HCl, pH 7.7 at 4° C., flash frozen in dry ice/acetone slush, and stored at -100° C. until use. Receptor binding experiments were performed within days after the membrane preparation.
I1 imidazoline receptor binding affinity was determined from radioligand binding of ^3 H-clonidine (NEN, Boston, Mass.) to bovine VLM membranes. Specific activity of ^3 H-clonidine was 43 Ci/mmol. Kd of ^3 H-clonidine binding to the I1 imidazoline receptor was determined by saturation experiments and Ki of other ligands studied were determined by competition experiments. The radioligand binding assay was performed in Teflon 96-wells with the Biomek-1000 robotics (Beckman Instruments, Fullerton, Calif.). Each well contained […] ^3 H-Clonidine and 0.3 to 0.5 mg of bovine VLM protein in 5 mM HEPES buffer containing 0.5 mM EGTA and 0.5 mM MgCl2, pH 7.4 (0.1 mM ascorbic acid was added just before the protein). After 50 min of incubation at 25° C., the reaction was terminated by rapid filtration over Whatman GF/B filters treated with 0.1% polyethyleneimine and washed with 12 ml ice cold 50 mM Tris-HCl, pH 7.4 at 4° C. in a Brandel Harvester (Brandel, Gaithersburg, Md.). Both `hot` and `cold` saturation experiments were performed. In `hot` saturation experiments, studies were performed with ^3 H-clonidine ranging from 0.1 to 50 nM. In `cold` saturation experiments, studies were performed with 2 nM ^3 H-clonidine with 20 different concentrations of the unlabeled clonidine, ranging from 0.1 nM to 1 uM unlabeled clonidine. Non specific binding was defined by parallel incubations containing 10^-5 M phentolamine or naphazoline. Imidazoline binding was determined by parallel incubations in which the alpha-adrenergic sites were masked with 10^-5 M norepinephrine. During competition experiments, ligands of 20 concentrations ranged from 10^-11 to 10^-4 were used. Radioactivity was counted in a Beckman LS-3801 scintillation counter. Data were captured and analyzed with Accufit saturation and competition softwares modeled both for one-site and two-site fits (Beckman Instruments, Fullerton, Calif.) using an IBM compatible computer. All experiments were repeated at least twice.

| SMILES | Ki |
| --- | --- |
| Cc1ccccc1NC1=NCCN1 [Example 1] | 12 nM |
| Cc1c(NC2=NCCN2)ccc2c1OCCO2 [Example 13] | 831 nM |
| Cc1c(NC2=NCCN2)ccc2c1NCCN2 [Example 8] | 100000 nM |
| c1cc2c(cc1NC1=NCCN1)NCCN2 [Example 7] | 1990 nM |
| c1cc2c(cc1NC1=NCCN1)OCCO2 [Example 11] | 1840 nM |
| Nc1cc(Cl)c(NC2=NCCN2)c(Cl)c1 [Example 3] | 19 nM |
| COc1ccc(NC2=NCCN2)c(C)c1OC [Example 12] | 340 nM |
| CC1CNc2c(ccc(NC3=NCCN3)c2Br)N1 (stereo not drawn) [Example 10] | 3950 nM |
| Brc1c(NC2=NCCN2)ccc2c1NCCN2 [Example 9] | 4580 nM |

Second part, the molecule after the results:

| Ki | SMILES |
| --- | --- |
| 100000 nM | Cc1c(NC2=NCCN2)ccc2c1NC(=O)CO2 [Example 15] |
| 412 nM | Cc1c(O)cccc1Nc1ncc[nH]1 [Example 20] |
| 4320 nM | COc1c(C(C)(C)C)cc(C)c(Nc2ncc[nH]2)c1C [Example 22] |
| 19 nM | Cc1cccc(Nc2ncc[nH]2)c1C [Example 18] |
| 11600 nM | O=C1COc2ccc(NC3=NCCN3)cc2N1 [Example 14] |
| 7110 nM | Cc1c(NC2=NCCN2)ccc2c1NCCO2 [Example 16] |
